Assays:
CYP3A4 = CYP3A4 (Homo sapiens, UniProt P08684); assay: Inhibition of CYP3A4 (unknown origin) at 3 uM; assay type: ADME
Androgen receptor = biological target: T1, Androgen receptor (Homo sapiens, UniProt P10275); assay: Antagonist activity at human GAL4-DBD fused AR ligand binding domain transfected in human Huh7 cells co-expressing GAL4-RE-Luc assessed as reduction in dihydrotestosterone-induced luciferase activity after 16 hrs by luciferase reporter gene assay; assay type: cell-based
T1 sequence (P10275 whole entry): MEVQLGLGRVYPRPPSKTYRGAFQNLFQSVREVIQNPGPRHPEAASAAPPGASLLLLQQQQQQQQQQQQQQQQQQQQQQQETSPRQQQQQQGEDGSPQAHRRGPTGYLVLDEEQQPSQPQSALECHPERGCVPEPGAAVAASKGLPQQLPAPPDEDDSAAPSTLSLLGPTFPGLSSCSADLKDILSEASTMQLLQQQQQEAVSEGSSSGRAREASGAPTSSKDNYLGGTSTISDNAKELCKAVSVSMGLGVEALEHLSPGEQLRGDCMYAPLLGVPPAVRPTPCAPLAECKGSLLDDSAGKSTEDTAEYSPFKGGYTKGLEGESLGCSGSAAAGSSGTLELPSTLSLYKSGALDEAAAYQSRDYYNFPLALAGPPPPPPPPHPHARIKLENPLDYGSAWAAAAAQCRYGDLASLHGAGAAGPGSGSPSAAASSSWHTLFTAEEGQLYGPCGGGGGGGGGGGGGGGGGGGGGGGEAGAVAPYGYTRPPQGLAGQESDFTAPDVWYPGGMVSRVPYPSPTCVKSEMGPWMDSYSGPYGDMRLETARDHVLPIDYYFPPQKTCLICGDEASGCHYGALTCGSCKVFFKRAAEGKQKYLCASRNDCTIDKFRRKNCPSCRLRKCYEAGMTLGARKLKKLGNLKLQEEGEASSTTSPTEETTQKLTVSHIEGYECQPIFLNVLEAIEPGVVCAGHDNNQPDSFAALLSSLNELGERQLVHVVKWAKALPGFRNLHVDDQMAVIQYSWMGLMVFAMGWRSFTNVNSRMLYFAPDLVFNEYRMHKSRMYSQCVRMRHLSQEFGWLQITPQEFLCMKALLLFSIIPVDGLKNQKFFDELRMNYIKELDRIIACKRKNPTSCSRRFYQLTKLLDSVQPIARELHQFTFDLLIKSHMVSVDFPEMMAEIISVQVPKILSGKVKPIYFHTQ

Progesterone receptor = biological target: T2, Progesterone receptor (Homo sapiens, UniProt P06401); assay: Antagonist activity at PR (unknown origin) by Gal4-based cellular assay
T2 sequence (P06401 whole entry): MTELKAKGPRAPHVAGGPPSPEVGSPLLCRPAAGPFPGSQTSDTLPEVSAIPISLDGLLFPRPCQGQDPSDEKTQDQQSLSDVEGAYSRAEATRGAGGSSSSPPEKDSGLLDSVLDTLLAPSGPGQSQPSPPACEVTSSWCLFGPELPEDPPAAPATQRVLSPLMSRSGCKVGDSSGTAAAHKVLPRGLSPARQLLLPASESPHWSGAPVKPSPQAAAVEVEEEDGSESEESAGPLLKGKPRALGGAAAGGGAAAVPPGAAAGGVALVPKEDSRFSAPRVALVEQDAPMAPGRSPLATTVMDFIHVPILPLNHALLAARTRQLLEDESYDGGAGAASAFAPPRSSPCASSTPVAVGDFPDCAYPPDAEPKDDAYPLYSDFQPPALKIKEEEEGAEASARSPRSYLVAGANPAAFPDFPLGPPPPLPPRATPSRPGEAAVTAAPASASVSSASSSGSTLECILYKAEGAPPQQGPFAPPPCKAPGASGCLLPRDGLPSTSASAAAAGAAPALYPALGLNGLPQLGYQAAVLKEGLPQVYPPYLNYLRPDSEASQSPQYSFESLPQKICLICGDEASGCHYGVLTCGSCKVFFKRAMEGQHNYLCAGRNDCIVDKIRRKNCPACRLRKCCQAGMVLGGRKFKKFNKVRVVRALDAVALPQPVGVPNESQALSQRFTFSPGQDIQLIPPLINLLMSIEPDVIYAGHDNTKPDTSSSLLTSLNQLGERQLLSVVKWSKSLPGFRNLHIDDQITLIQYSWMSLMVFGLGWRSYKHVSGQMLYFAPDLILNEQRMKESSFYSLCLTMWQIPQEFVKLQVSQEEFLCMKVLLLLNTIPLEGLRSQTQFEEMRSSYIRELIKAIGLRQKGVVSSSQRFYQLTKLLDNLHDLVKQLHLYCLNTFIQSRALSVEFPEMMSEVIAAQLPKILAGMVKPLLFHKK

CYP2D6 = CYP2D6 (Homo sapiens, UniProt P10635); assay: Inhibition of CYP2D6 (unknown origin) at 3 uM; assay type: ADME
CYP2C9 = CYP2C9 (Homo sapiens, UniProt P11712); assay: Inhibition of CYP2C9 (unknown origin) at 3 uM; assay type: ADME
[1] = Distribution coefficient, log D of the compound; assay type: physicochemical; details: octanol/water
Glucocorticoid receptor = biological target: T3, Glucocorticoid receptor (Homo sapiens, UniProt P04150); assay: Antagonist activity at GR (unknown origin) by Gal4-based cellular assay
T3 sequence (P04150 whole entry): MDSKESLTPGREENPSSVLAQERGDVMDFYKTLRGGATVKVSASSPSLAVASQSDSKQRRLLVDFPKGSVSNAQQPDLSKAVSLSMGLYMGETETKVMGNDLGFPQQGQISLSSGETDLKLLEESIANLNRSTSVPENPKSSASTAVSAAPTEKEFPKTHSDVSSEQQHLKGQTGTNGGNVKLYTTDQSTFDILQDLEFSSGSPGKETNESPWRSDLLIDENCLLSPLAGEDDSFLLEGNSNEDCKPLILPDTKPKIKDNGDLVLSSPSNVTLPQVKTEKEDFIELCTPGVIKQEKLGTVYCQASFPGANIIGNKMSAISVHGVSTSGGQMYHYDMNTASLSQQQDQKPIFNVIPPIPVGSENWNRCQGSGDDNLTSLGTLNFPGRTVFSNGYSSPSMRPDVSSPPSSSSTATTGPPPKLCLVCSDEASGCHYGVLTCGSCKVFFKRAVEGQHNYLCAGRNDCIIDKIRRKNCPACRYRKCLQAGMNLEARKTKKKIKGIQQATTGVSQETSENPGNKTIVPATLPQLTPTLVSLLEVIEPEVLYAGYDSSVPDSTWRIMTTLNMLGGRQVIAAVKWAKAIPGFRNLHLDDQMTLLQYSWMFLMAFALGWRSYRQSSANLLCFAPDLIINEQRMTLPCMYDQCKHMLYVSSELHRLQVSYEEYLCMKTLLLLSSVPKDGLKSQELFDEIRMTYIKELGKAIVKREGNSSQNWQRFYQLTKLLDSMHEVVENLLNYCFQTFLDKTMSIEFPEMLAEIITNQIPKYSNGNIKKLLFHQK

CYP3A4, sequence (P08684 whole entry, the tested form may be a part): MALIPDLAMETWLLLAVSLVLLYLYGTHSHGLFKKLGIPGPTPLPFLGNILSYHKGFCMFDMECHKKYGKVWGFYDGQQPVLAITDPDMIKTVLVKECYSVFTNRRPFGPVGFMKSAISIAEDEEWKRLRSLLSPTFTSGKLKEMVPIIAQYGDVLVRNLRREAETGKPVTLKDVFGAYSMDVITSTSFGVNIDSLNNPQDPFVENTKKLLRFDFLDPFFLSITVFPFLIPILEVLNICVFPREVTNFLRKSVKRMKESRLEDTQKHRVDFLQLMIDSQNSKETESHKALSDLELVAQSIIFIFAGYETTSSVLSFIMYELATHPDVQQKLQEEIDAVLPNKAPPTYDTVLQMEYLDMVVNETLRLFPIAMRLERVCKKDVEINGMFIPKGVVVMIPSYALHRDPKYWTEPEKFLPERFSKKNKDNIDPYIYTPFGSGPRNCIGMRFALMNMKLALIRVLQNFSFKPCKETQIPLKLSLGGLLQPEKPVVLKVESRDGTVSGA
CYP2C9, sequence (P11712 whole entry): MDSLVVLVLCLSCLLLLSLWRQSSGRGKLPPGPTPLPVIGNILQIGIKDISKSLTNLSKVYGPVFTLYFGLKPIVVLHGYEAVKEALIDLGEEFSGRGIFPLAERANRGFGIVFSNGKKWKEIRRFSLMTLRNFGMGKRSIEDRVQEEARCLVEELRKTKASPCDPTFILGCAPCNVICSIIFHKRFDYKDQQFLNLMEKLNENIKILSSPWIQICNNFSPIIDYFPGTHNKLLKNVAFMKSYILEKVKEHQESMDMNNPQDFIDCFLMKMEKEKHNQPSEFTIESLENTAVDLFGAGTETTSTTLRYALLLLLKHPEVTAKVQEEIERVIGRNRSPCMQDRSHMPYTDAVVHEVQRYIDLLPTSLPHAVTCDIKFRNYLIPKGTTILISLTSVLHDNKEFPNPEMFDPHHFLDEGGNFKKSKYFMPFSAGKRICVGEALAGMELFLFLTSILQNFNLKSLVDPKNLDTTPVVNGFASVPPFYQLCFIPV
CYP2D6, sequence (P10635 whole entry): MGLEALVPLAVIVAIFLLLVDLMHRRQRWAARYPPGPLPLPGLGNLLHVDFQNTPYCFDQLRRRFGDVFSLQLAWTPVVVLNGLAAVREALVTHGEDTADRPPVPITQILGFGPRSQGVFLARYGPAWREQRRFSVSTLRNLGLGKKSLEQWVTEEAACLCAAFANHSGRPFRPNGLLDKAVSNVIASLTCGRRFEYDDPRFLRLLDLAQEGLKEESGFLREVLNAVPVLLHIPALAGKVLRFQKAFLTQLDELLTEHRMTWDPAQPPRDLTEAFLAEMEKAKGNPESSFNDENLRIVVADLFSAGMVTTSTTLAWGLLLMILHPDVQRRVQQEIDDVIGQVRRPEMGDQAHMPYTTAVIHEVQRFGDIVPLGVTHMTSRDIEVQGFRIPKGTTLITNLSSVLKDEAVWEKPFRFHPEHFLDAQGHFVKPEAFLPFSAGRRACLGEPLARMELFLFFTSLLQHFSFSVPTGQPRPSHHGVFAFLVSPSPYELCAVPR

inhibition at 3 µM (CYP3A4)	IC50 (Androgen receptor)	IC50 (Progesterone receptor)	inhibition at 3 µM (CYP2D6)	inhibition at 3 µM (CYP2C9)	logD [1]	IC50 (Glucocorticoid receptor)	SMILES
< 10%	> 10 µM	> 10 µM	< 10%	< 10%	2.7	> 10 µM	O=C1COc2ccc(N3CCOC[C@H]3c3ccccc3)cc2N1
< 20%	> 10 µM	> 10 µM	< 20%	< 20%	2.8	> 10 µM	C[C@@H]1CN(c2ccc3c(n2)NC(=O)CO3)[C@H](c2ccccc2)CO1

— ChEMBL document CHEMBL4024791, “Identification of Morpholino-2H-pyrido[3,2-b][1,4]oxazin-3(4H)-ones as Nonsteroidal Mineralocorticoid Antagonists” (J Med Chem, 2018)
